Source: US10844077B2, “Thiazolyl-containing compounds for treating proliferative diseases” (Dana-Farber Cancer Institute, Inc., priority 2014, dated 2020)
Values joined by “and” are separate entries in the source; they are usually repeats but may differ in a detail not shown here. Identical values can stand only once.

How the values were obtained:
ABL, ARG = assay: KINATIV assay; type: cell-based; conditions: 1 μM, 90 minutes, BCWM.1 cells
Procedure, shortened: (§1)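 An ATP-biotin probe is applied directly to lysates of harvested cells, and the kinases it binds are identified and quantified via ACTIVX.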

AMPKa1 = AMPKa1 (Homo sapiens (Human), UniProt Q13131); assay: KINATIV assay; type: cell-based; conditions: 1 μM, 90 minutes, BCWM.1 cells
Procedure, shortened: as §1

CASK = CASK (Homo sapiens (Human), UniProt O14936); assay: KINATIV assay; type: cell-based; conditions: 1 μM, 90 minutes, BCWM.1 cells
Procedure, shortened: as §1

EphB1 = EphB1 (Homo sapiens (Human), UniProt P54762); assay: KINATIV assay; type: cell-based; conditions: 1 μM, 90 minutes, BCWM.1 cells
Procedure, shortened: as §1

Erk5 = Erk5 (Homo sapiens (Human), UniProt Q13164); assay: KINATIV assay; type: cell-based; conditions: 1 μM, 90 minutes, BCWM.1 cells
Procedure, shortened: as §1

GSK3A = GSK3A (Homo sapiens (Human), UniProt P49840); assay: KINATIV assay; type: cell-based; conditions: 1 μM, 90 minutes, BCWM.1 cells
Procedure, shortened: as §1

IRAK1 = IRAK1 (Homo sapiens (Human), UniProt P51617); assay: KINATIV assay; type: cell-based; conditions: 1 μM, 90 minutes, BCWM.1 cells
Procedure, shortened: as §1

IRE1 = IRE1 (Homo sapiens (Human), UniProt O75460); assay: KINATIV assay; type: cell-based; conditions: 1 μM, 90 minutes, BCWM.1 cells
Procedure, shortened: as §1

ITPK1 = ITPK1 (Homo sapiens (Human), UniProt Q13572); assay: KINATIV assay; type: cell-based; conditions: 1 μM, 90 minutes, BCWM.1 cells
Procedure, shortened: as §1

KSR1, KSR2 = assay: KINATIV assay; type: cell-based; conditions: 1 μM, 90 minutes, BCWM.1 cells
Procedure, shortened: as §1

LKB1 = LKB1 (Homo sapiens (Human), UniProt Q15831); assay: KINATIV assay; type: cell-based; conditions: 1 μM, 90 minutes, BCWM.1 cells
Procedure, shortened: as §1

MAP3K2, MAP3K3 = assay: KINATIV assay; type: cell-based; conditions: 1 μM, 90 minutes, BCWM.1 cells
Procedure, shortened: as §1

MAP3K3 = MAP3K3 (Homo sapiens (Human), UniProt Q99759); assay: KINATIV assay; type: cell-based; conditions: 1 μM, 90 minutes, BCWM.1 cells
Procedure, shortened: as §1

MARK2 = MARK2 (Homo sapiens (Human), UniProt Q7KZI7); assay: KINATIV assay; type: cell-based; conditions: 1 μM, 90 minutes, BCWM.1 cells
Procedure, shortened: as §1

MARK2, MARK3 = assay: KINATIV assay; type: cell-based; conditions: 1 μM, 90 minutes, BCWM.1 cells
Procedure, shortened: as §1

MARK3, MARK4 = assay: KINATIV assay; type: cell-based; conditions: 1 μM, 90 minutes, BCWM.1 cells
Procedure, shortened: as §1

MSK1 domain1 = MSK1 domain1 (Homo sapiens (Human), UniProt O75582); assay: KINATIV assay; type: cell-based; conditions: 1 μM, 90 minutes, BCWM.1 cells
Procedure, shortened: as §1

MST2 = MST2 (Homo sapiens (Human), UniProt Q13188); assay: KINATIV assay; type: cell-based; conditions: 1 μM, 90 minutes, BCWM.1 cells
Procedure, shortened: as §1

PI4KB = PI4KB (Homo sapiens (Human), UniProt Q9UBF8); assay: KINATIV assay; type: cell-based; conditions: 1 μM, 90 minutes, BCWM.1 cells
Procedure, shortened: as §1

PIK3CB = PIK3CB (Homo sapiens (Human), UniProt P42338); assay: KINATIV assay; type: cell-based; conditions: 1 μM, 90 minutes, BCWM.1 cells
Procedure, shortened: as §1

PKD1, PKD2 = assay: KINATIV assay; type: cell-based; conditions: 1 μM, 90 minutes, BCWM.1 cells
Procedure, shortened: as §1

PYK2 = PYK2 (Homo sapiens (Human), UniProt Q14289); assay: KINATIV assay; type: cell-based; conditions: 1 μM, 90 minutes, BCWM.1 cells
Procedure, shortened: as §1

RSK3 = RSK3 (Homo sapiens (Human), UniProt Q15349); assay: KINATIV assay; type: cell-based; conditions: 1 μM, 90 minutes, BCWM.1 cells
Procedure, shortened: as §1

SRPK1 = SRPK1 (Homo sapiens (Human), UniProt Q96SB4); assay: KINATIV assay; type: cell-based; conditions: 1 μM, 90 minutes, BCWM.1 cells
Procedure, shortened: as §1

TAK1 = TAK1 (Homo sapiens (Human), UniProt O43318); assay: KINATIV assay; type: cell-based; conditions: 1 μM, 90 minutes, BCWM.1 cells
Procedure, shortened: as §1

TAO2 = TAO2 (Homo sapiens (Human), UniProt Q9UL54); assay: KINATIV assay; type: cell-based; conditions: 1 μM, 90 minutes, BCWM.1 cells
Procedure, shortened: as §1

TLK2 = TLK2 (Homo sapiens (Human), UniProt Q86UE8); assay: KINATIV assay; type: cell-based; conditions: 1 μM, 90 minutes, BCWM.1 cells
Procedure, shortened: as §1

Wnk1, Wnk2, Wnk3 = assay: KINATIV assay; type: cell-based; conditions: 1 μM, 90 minutes, BCWM.1 cells
Procedure, shortened: as §1

[1] = system: ZC1/HGK, ZC2/TNIK, ZC3/MINK; assay: KINATIV assay; type: cell-based; conditions: 1 μM, 90 minutes, BCWM.1 cells
Procedure, shortened: as §1

eEF2K = eEF2K (Homo sapiens (Human), UniProt O00418); assay: KINATIV assay; type: cell-based; conditions: 1 μM, 90 minutes, BCWM.1 cells
Procedure, shortened: as §1

p70S6Kb = p70S6Kb (Homo sapiens (Human), UniProt Q9UBS0); assay: KINATIV assay; type: cell-based; conditions: 1 μM, 90 minutes, BCWM.1 cells
Procedure, shortened: as §1

MAPKAPK3 = MAPKAPK3 (Homo sapiens (Human), UniProt Q16644)
Method: (§2) The cells were harvested and lysed. The lysates were directly labeled with an ATP-biotin probe. Bound kinases were identified and quantitated by ACTIVX as described in Patricelli et al., Biochemistry, 2007, 46(2): 350-358. The compounds were tested in duplicates against duplicate or quadruplicate control samples.

PCTAIRE1 = PCTAIRE1 (Homo sapiens (Human), UniProt Q00536)
Method: as §2

PCTAIRE2 = PCTAIRE2 (Homo sapiens (Human), UniProt Q00537)
Method: as §2

PRP4 = PRP4 (Homo sapiens (Human), UniProt Q13523)
Method: as §2

PRPK = PRPK (Homo sapiens (Human), UniProt Q96S44)
Method: as §2

PCTAIRE1, PCTAIRE3 = assay: KINATIV assay; type: cell-based; conditions: 1 μM, 90 minutes, BCWM.1 cells
Text: (§3) The cells were harvested and lysed.

PCTAIRE2, PCTAIRE3 = assay: KINATIV assay; type: cell-based; conditions: 1 μM, 90 minutes, BCWM.1 cells
Text: as §3

kinases in BCWM.1 cells = kinases in BCWM.1 cells (Homo sapiens, UniProt Q16816); type: cell-based; conditions: PHKg1; Protein Kinase Domain; 1 μM, 90 min; GF
Method: The cells were harvested and lysed. […] Bound kinases were identified and quantitated by ACTIVX as described in Patricelli et al., Biochemistry, 2007, 46(2): 350-358. The compounds were tested in duplicates against duplicate or quadruplicate control samples.

Chain of PYK2 (Q14289 whole entry): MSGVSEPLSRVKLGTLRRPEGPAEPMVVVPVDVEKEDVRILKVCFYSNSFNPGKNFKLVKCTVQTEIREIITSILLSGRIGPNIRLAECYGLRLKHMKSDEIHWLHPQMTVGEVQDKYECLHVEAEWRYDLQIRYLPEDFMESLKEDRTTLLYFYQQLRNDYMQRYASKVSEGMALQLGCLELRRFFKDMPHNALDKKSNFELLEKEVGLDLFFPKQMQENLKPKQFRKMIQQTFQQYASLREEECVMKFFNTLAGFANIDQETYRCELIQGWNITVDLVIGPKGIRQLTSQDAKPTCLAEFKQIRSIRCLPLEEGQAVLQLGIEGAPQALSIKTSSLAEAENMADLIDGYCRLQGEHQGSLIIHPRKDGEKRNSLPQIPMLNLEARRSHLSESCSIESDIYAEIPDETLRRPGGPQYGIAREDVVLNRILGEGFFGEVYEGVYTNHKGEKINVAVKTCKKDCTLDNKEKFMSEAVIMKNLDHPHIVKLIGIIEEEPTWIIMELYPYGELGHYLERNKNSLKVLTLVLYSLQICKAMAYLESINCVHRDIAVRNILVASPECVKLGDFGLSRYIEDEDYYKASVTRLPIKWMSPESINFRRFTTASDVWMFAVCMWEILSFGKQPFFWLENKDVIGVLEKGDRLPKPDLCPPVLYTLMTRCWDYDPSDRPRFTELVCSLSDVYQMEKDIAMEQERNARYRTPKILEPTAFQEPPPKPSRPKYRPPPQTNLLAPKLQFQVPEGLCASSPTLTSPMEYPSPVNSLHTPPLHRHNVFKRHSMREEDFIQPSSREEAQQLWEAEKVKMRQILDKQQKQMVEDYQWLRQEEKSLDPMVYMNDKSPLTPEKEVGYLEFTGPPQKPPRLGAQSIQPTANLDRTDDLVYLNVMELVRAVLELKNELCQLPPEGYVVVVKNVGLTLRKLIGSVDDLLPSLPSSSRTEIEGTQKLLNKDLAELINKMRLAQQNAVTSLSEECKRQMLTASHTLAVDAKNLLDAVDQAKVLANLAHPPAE
Chain of PI4KB (Q9UBF8 whole entry): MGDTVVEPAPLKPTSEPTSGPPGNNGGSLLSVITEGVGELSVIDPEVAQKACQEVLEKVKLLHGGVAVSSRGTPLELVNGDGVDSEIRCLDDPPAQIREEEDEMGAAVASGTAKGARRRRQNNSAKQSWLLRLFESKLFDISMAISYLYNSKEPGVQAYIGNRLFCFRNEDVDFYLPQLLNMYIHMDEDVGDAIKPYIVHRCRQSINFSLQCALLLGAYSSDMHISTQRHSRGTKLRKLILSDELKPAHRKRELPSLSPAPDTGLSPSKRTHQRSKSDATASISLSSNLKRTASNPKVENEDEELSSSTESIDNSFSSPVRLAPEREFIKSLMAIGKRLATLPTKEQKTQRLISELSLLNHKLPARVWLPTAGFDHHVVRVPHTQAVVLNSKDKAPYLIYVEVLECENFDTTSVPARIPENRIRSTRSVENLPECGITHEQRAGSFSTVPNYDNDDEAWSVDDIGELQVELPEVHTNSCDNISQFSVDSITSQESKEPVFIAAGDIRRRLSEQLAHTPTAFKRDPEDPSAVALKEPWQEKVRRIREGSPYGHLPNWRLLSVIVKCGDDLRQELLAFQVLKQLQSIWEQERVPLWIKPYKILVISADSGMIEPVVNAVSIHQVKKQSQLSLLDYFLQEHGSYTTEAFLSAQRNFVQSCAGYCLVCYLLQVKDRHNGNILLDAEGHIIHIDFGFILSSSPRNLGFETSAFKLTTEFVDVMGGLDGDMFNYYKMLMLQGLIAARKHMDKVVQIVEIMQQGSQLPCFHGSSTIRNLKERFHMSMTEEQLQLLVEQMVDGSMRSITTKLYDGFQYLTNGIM
Chain of MAPKAPK3 (Q16644 whole entry, looked up): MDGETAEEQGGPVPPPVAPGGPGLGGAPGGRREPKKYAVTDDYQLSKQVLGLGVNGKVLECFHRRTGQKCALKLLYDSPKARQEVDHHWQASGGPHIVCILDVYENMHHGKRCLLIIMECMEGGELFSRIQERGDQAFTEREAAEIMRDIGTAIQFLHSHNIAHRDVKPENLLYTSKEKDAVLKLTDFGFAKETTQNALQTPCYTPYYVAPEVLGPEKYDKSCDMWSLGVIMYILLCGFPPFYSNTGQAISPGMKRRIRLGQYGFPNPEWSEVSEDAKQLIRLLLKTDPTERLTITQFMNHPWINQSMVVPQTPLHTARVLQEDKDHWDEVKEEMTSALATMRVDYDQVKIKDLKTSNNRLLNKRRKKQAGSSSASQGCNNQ
Chain of MST2 (Q13188 whole entry): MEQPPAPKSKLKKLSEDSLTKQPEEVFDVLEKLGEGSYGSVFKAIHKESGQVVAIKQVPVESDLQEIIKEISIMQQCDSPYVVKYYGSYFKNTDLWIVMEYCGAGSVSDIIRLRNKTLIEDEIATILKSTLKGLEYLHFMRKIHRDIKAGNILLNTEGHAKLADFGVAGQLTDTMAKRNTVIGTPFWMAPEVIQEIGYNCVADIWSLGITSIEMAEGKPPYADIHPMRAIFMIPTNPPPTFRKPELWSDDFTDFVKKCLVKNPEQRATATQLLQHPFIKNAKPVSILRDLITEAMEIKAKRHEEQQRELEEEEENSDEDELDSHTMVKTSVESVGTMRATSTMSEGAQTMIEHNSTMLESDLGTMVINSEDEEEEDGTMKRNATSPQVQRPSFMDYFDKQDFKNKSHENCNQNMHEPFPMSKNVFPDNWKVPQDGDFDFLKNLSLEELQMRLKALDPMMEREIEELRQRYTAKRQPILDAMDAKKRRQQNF
Chain of AMPKa1 (Q13131 whole entry): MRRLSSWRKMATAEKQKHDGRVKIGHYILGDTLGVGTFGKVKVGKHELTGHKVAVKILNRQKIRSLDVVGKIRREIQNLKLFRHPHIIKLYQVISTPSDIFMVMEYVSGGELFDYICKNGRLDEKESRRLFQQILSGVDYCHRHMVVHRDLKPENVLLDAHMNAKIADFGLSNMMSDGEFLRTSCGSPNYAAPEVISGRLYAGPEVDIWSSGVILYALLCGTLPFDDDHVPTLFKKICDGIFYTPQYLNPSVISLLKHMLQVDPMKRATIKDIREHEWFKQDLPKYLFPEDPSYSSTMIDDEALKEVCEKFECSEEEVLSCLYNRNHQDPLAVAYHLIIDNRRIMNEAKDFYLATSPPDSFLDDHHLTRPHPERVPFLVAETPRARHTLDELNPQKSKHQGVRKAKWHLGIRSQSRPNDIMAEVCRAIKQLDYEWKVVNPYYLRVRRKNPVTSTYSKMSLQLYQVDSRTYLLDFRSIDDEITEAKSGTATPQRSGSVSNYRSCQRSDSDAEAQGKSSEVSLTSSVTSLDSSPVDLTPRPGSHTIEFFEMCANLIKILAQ
Chain of AMPKa1 (Q9Y478 whole entry partner): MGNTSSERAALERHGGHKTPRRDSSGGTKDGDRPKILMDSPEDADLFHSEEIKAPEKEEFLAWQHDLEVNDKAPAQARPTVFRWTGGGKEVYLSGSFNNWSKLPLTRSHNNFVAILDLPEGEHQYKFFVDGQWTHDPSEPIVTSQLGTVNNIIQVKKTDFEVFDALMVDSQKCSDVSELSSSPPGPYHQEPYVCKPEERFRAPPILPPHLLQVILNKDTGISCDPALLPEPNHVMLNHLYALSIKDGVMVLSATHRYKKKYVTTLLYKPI
Chain of AMPKa1 (P54619 whole entry partner): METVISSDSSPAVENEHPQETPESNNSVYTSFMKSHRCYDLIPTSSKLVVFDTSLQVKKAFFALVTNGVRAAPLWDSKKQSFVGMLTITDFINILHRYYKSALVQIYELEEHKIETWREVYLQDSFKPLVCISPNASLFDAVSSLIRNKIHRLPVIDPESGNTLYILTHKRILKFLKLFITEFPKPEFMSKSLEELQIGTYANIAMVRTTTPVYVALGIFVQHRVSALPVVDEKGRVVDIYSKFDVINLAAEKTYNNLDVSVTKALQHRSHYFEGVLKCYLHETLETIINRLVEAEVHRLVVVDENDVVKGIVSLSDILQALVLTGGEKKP
Chain of PRP4 (Q13523 whole entry, looked up): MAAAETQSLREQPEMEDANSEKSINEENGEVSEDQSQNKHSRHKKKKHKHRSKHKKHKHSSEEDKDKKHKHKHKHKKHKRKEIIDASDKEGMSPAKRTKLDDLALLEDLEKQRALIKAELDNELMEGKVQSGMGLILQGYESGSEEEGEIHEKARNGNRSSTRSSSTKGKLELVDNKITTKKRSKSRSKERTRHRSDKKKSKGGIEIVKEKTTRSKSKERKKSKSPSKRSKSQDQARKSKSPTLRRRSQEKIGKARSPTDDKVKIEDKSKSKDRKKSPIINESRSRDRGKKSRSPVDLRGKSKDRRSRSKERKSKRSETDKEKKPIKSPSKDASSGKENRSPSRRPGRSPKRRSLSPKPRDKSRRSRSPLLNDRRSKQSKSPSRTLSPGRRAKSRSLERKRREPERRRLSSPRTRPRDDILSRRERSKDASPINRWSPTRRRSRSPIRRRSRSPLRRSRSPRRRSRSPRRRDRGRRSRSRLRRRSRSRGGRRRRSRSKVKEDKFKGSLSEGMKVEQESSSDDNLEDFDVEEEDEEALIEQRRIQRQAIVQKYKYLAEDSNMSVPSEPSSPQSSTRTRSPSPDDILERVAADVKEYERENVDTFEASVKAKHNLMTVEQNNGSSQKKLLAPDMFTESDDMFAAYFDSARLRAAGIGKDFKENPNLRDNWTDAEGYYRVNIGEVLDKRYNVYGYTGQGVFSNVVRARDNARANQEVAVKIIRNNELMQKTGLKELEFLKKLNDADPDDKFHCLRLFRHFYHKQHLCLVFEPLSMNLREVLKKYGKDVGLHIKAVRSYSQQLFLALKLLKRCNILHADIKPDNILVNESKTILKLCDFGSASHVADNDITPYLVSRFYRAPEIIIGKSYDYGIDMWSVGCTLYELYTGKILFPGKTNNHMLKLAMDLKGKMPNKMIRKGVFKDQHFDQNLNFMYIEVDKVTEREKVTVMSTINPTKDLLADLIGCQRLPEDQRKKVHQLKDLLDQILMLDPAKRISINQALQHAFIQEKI

C=CC(=O)N1CCC(CNc2nccc(Nc3ncc(C(=O)Nc4c(C)cccc4C)s3)n2)C1 (racemic) [Example I-8]
% change of MS signal compared to control sample (ABL, ARG): >90% and >97%
% change of MS signal compared to control sample (AMPKa1): −0.6%
% change of MS signal compared to control sample (CASK): 43.0%
% change of MS signal compared to control sample (EphB1): >97%
% change of MS signal compared to control sample (Erk5): −11.4%
% change of MS signal compared to control sample (GSK3A): −14.2%
% change of MS signal compared to control sample (IRAK1): 13.6%
% change of MS signal compared to control sample (IRE1): −1.5%
% change of MS signal compared to control sample (ITPK1): −16.4%
% change of MS signal compared to control sample (KSR1, KSR2): −8.8%
% change of MS signal compared to control sample (LKB1): −1.8%
% change of MS signal compared to control sample (MAP3K2, MAP3K3): 19.4%
% change of MS signal compared to control sample (MAP3K3): 7.9%
% change of MS signal compared to control sample (MARK2): 12.1%
% change of MS signal compared to control sample (MARK2, MARK3): 7.5%
% change of MS signal compared to control sample (MARK3, MARK4): 5.8%
% change of MS signal compared to control sample (MSK1 domain1): −45.5%
% change of MS signal compared to control sample (MST2): 4.3%
% change of MS signal compared to control sample (PI4KB): 44.2% and 41.9%
% change of MS signal compared to control sample (PIK3CB): −10.1%
% change of MS signal compared to control sample (PKD1, PKD2): −15.3%
% change of MS signal compared to control sample (PYK2): 20.3% and 25.5%
% change of MS signal compared to control sample (RSK3): 2.9%
% change of MS signal compared to control sample (SRPK1): −19.5%
% change of MS signal compared to control sample (TAK1): 9.7%
% change of MS signal compared to control sample (TAO2): −4.9%
% change of MS signal compared to control sample (TLK2): 9.4%
% change of MS signal compared to control sample (Wnk1, Wnk2, Wnk3): 1.7%
% change of MS signal compared to control sample [1]: 13.6%
% change of MS signal compared to control sample (eEF2K): −1.5%
% change of MS signal compared to control sample (p70S6Kb): −22.7%
% change of MS signal compared to control sample (MAPKAPK3): 0.5%
% change of MS signal compared to control sample (PCTAIRE1): 32.9%
% change of MS signal compared to control sample (PCTAIRE2): 8.5%
% change of MS signal compared to control sample (PRP4): −10.7%
% change of MS signal compared to control sample (PRPK): 3.7%
% change of MS signal compared to control sample (PCTAIRE1, PCTAIRE3): 19.8%
% change of MS signal compared to control sample (PCTAIRE2, PCTAIRE3): 28.8%

C=CC(=O)N1CC[C@H](Nc2nccc(Nc3ncc(C(=O)Nc4c(C)cccc4C)s3)n2)C1 [Example I-3]
% change of MS signal compared to control sample (kinases in BCWM.1 cells): −38.8%

CCC(=O)N1CC[C@H](Nc2nccc(Nc3ncc(C(=O)Nc4c(C)cccc4C)s3)n2)C1 [Example I-9]
% change of MS signal compared to control sample (kinases in BCWM.1 cells): −26.2%
